US9457033B2, “Steroid alkaloids and uses thereof as antimicrobial agents against electron transport-deficient microbes and as potentiators for antimicrobial agents against pathogenic bacteria” (priority 2011, dated 2016)
Values after ≈ are worked out from the molar mass of the structure shown. Where two headings read alike, the source gives them in different places.

What was measured:
S. aureus CF35A-L = test: MIC, microdilution in CAMHB 24 h; assay type: cell-based, Staphylococcus aureus; conditions: Staphylococcus aureus; CF35A-L; Human (CF lungs); MRSA; read-out: MIC
S. aureus CF8E-L = test: MIC, microdilution in CAMHB 24 h; assay type: cell-based, Staphylococcus aureus; conditions: Staphylococcus aureus, CF8EL; CF8E-L; Human (CF lungs); read-out: MIC
S. aureus CF07-L = test: MIC, microdilution in CAMHB 24 h; assay type: cell-based, Staphylococcus aureus; conditions: Staphylococcus aureus, CF07L; CF07-L; Human (CF lungs); read-out: MIC
S. aureus CF9A-L = test: MIC, microdilution in CAMHB 24 h; assay type: cell-based, Staphylococcus aureus; conditions: Staphylococcus aureus; CF9A-L; Human (CF lungs); MRSA; read-out: MIC
S. aureus Newman = test: MIC, microdilution in CAMHB 24 h; assay type: cell-based, Staphylococcus aureus; conditions: Staphylococcus aureus; Newman; Human (Osteo); read-out: MIC
[1] = tested on: S. aureus CF1A-L (normal strain); test: MIC, microdilution in BHI 48 h; assay type: cell-based, Staphylococcus aureus; conditions: Staphylococcus aureus; CF1A-L, normal strain; read-out: MIC
[2] = tested on: S. aureus CF07-L (normal strain); test: MIC, microdilution in BHI 48 h (Examples 1, 3); assay type: cell-based, Staphylococcus aureus
[3] = tested on: S. aureus Newbould (normal strain); test: MIC, microdilution in BHI 48 h; assay type: cell-based, Staphylococcus aureus; conditions: Staphylococcus aureus; Newbould, normal strain; read-out: MIC
S. aureus Newbould = test: MIC, microdilution in CAMHB 24 h; assay type: cell-based, Staphylococcus aureus; conditions: Staphylococcus aureus; Newbould; Cow (mastitis); read-out: MIC
[4] = tested on: S. aureus SCV NewbouldΔhemB; test: MIC, microdilution in BHI 48 h; assay type: cell-based, Staphylococcus aureus
S. aureus ATCC 43300 = test: MIC, microdilution in CAMHB 24 h; assay type: cell-based, Staphylococcus aureus; conditions: Staphylococcus aureus, ATCC 43300 / MRSA; ATCC 43300; Human (HA); MRSA; read-out: MIC
S. aureus ATCC BAA-41 = test: MIC, microdilution in CAMHB 24 h; assay type: cell-based, Staphylococcus aureus; conditions: Staphylococcus aureus, ATCC BAA-41 / MRSA; ATCC BAA-41; Human (HA); MRSA; read-out: MIC
S. aureus CF1A-L = test: MIC, microdilution in CAMHB 24 h; assay type: cell-based, Staphylococcus aureus; conditions: Staphylococcus aureus, CF1AL; CF1A-L; Human (CF lungs); read-out: MIC
S. aureus N315 = test: microbe, parasite or virus in culture; assay type: cell-based, Staphylococcus aureus; conditions: Staphylococcus aureus, MRSA
S. aureus CF7A-L = test: MIC, microdilution in CAMHB 24 h; assay type: cell-based, Staphylococcus aureus; conditions: Staphylococcus aureus; CF7A-L; Human (CF lungs); MRSA; read-out: MIC
S. aureus CF6B-L = test: MIC, microdilution in CAMHB 24 h; assay type: cell-based, Staphylococcus aureus; conditions: Staphylococcus aureus, CF6BL; CF6B-L; Human (CF lungs); read-out: MIC
S. aureus MA078038 = test: MIC, microdilution in CAMHB 24 h; assay type: cell-based, Staphylococcus aureus; conditions: Staphylococcus aureus; MA078038; Human (CA); MRSA; read-out: MIC
S. aureus SHY97-3906 = test: MIC, microdilution in CAMHB 24 h; assay type: cell-based, Staphylococcus aureus; conditions: Staphylococcus aureus, SHY973906; SHY97-3906; Cow (mastitis); read-out: MIC
S. aureus SCV CF1D-S = test: MIC, microdilution in BHI 48 h; assay type: cell-based, Staphylococcus aureus; conditions: Staphylococcus aureus, SCVCF1DS
S. aureus Mu50 = test: MIC, microdilution in CAMHB 24 h; assay type: cell-based, Staphylococcus aureus; conditions: Staphylococcus aureus; Mu50; Human (SSTI); MRSA, VISA; read-out: MIC
S. aureus SCV CF07-S = test: MIC, microdilution in BHI 48 h (Examples 1, 3); assay type: cell-based, Staphylococcus aureus
S. aureus CF4B-L = test: MIC, microdilution in CAMHB 24 h; assay type: cell-based, Staphylococcus aureus; conditions: Staphylococcus aureus, CF4BL; CF4B-L; Human (CF lungs); read-out: MIC
S. aureus Sa228c = test: MIC, microdilution in CAMHB 24 h; assay type: cell-based, Staphylococcus aureus; conditions: Staphylococcus aureus, MRSA
S. aureus CF2A-L = test: MIC, microdilution in CAMHB 24 h; assay type: cell-based; conditions: Staphylococcus aureus, CF2AL; CF2A-L; Human (CF lungs); read-out: MIC
S. aureus 8325-4 = test: MIC, microdilution in CAMHB 24 h; assay type: cell-based, Staphylococcus aureus; conditions: Staphylococcus aureus, 83254; 8325-4; Laboratory strain; read-out: MIC
S. aureus Sa220c = test: MIC, microdilution in CAMHB 24 h; assay type: cell-based, Staphylococcus aureus; conditions: Staphylococcus aureus; Sa220c; Human (SSTI); MRSA; read-out: MIC
S. aureus MRSA COL = test: MIC, microdilution in CAMHB 24 h; assay type: cell-based, Staphylococcus aureus; conditions: Staphylococcus aureus; MRSA COL; Human (SSTI); read-out: MIC
S. aureus ATCC 29213 [5] = test: MIC, microdilution in BHI 48 h (Examples 1, 3); assay type: cell-based, Staphylococcus aureus
S. aureus ATCC 29213 [6] = test: MIC, microdilution in CAMHB 24 h, with or without tomatidine/compound; assay type: cell-based, Staphylococcus aureus; conditions: ATCC 29213; for Fold (−TO/+TO): tomatidine at 8 μg/ml; for MIC: Staphylococcus aureus, ATCC29213
S. aureus ATCC 29213 [7] = test: MICs of control antibiotics for macromolecular biosynthesis assays; assay type: cell-based; conditions: Staphylococcus aureus, ATCC29213; ATCC 29213; data not shown; read-out: MIC
[8] = tested on: protein, DNA, RNA and cell wall peptidoglycan biosynthesis in ATCC 29213; test: Macromolecular biosynthesis assay, incorporation of radiolabeled precursors; assay type: cell-based, Staphylococcus aureus; conditions: control antibiotics at approximately 4×MIC; FIG. 3A
[9] = Staphylococcus aureus, CF07-L, normal strain, read-out: MIC
[10] = Staphylococcus aureus, SCVCF07S
[11] = absence of tomatidine, read-out: MIC −TO
[12] = presence of tomatidine at 8 μg/ml, read-out: MIC +TO

SMILES	MIC (S. aureus CF35A-L) [mg/L]	MIC (S. aureus CF8E-L) [mg/L]	MIC (S. aureus CF07-L) [mg/L]	MIC (S. aureus CF9A-L) [mg/L]	MIC (S. aureus Newman) [mg/L]	MIC [1] [mg/L]	MIC ([2]; CF07-L + HQNO at 20 μg/ml) [mg/L]	MIC ([2]; CF07-L, without HQNO) [mg/L]	MIC (S. aureus Newbould) [mg/L]	MIC (S. aureus CF1A-L) [mg/L]	MIC (S. aureus CF7A-L) [mg/L]	MIC (S. aureus CF6B-L) [mg/L]	MIC (S. aureus SHY97-3906) [mg/L]	MIC (S. aureus Mu50) [mg/L]	MIC (S. aureus CF4B-L) [mg/L]	MIC (S. aureus Sa228c) [mg/L]	MIC (S. aureus CF2A-L) [mg/L]	MIC (S. aureus 8325-4) [mg/L]	MIC (S. aureus Sa220c) [mg/L]	MIC (S. aureus MRSA COL) [mg/L]	further results
O=C(O)c1cn(C2CC2)c2cc(N3CCNCC3)c(F)cc2c1=O [Ciprofloxacin, ciprofloxacin]	> 64	1 (≈ 3.02 µM)	0.5 (≈ 1.51 µM)	> 64	0.25 (≈ 0.754 µM)	0.5 (≈ 1.51 µM)	0.25	0.5 (≈ 1.51 µM)	0.25 (≈ 0.754 µM)	0.5 to 1 (≈ 1.51 to 3.02 µM)	> 64	> 64	0.25 (≈ 0.754 µM)	32 to 64 (≈ 96.6 to 193 µM)	0.25 to 0.5 (≈ 0.754 to 1.51 µM)	> 64	0.25 (≈ 0.754 µM)	0.25 to 0.5 (≈ 0.754 to 1.51 µM)	32 (≈ 96.6 µM)	0.5 (≈ 1.51 µM)	MIC [2, 9]: 0.5 mg/L (≈ 1.51 µM); MIC [3]: 0.25 to 0.5 mg/L (≈ 0.754 to 1.51 µM); MIC ([4]; Staphylococcus aureus): 0.12 to 0.25 mg/L (≈ 0.362 to 0.754 µM); MIC (S. aureus ATCC 43300): 0.5 mg/L (≈ 1.51 µM); MIC (S. aureus ATCC BAA-41): > 64 mg/L; MIC (S. aureus N315): 0.25 mg/L (≈ 0.754 µM); MIC (S. aureus MA078038): 16 mg/L (≈ 48.3 µM); MIC (S. aureus SCV CF1D-S): 0.12 mg/L (≈ 0.362 µM); MIC (S. aureus SCV CF07-S; CF07-S + HQNO at 20 μg/ml): 0.12 mg/L; MIC (S. aureus SCV CF07-S; CF07-S, without HQNO): 0.12 mg/L (≈ 0.362 µM); MIC (S. aureus SCV CF07-S; [10]): 0.12 mg/L (≈ 0.362 µM)
CC[C@H]1OC(=O)[C@H](C)[C@@H](O[C@H]2C[C@@](C)(OC)[C@@H](O)[C@H](C)O2)[C@H](C)[C@@H](O[C@@H]2O[C@H](C)C[C@H](N(C)C)[C@H]2O)[C@](C)(O)C[C@@H](C)C(=O)[C@H](C)[C@@H](O)[C@]1(C)O [Erythromycin, erythromycin]	> 64	0.5 (≈ 0.681 µM)	0.5 (≈ 0.681 µM)	> 64	0.5 (≈ 0.681 µM)	0.25 (≈ 0.341 µM)	0.25	0.25 (≈ 0.341 µM)	0.5 (≈ 0.681 µM)	0.25 to 0.5 (≈ 0.341 to 0.681 µM)	> 64	0.5 to 2 (≈ 0.681 to 2.73 µM)	0.12 to 0.25 (≈ 0.164 to 0.341 µM)	> 64	0.5 (≈ 0.681 µM)	> 64	0.5 (≈ 0.681 µM)	0.25 to 0.5 (≈ 0.341 to 0.681 µM)	0.5 to 1 (≈ 0.681 to 1.36 µM)	0.5 (≈ 0.681 µM)	MIC (S. aureus ATCC 29213 [5]; ATCC 29213 + HQNO at 20 μg/ml): 0.25 mg/L; MIC (S. aureus ATCC 29213 [5]; Staphylococcus aureus, ATCC29213, ATCC 29213, without HQNO, read-out: MIC): 0.12 to 0.25 mg/L (≈ 0.164 to 0.341 µM); MIC (S. aureus ATCC 29213 [5]; Staphylococcus aureus, ATCC29213, ATCC 29213 in BHI, read-out: MIC): 0.12 to 0.25 mg/L (≈ 0.164 to 0.341 µM); MIC (S. aureus ATCC 29213 [5]; Staphylococcus aureus, ATCC29213, ATCC 29213 in MHBCA, read-out: MIC): 0.12 to 0.5 mg/L (≈ 0.164 to 0.681 µM); MIC [2, 9]: 0.25 mg/L (≈ 0.341 µM); MIC [3]: 0.25 mg/L (≈ 0.341 µM); MIC ([4]; NewbouldΔhemB, SCV, listed as ERY): >16 mg/L; MIC ([4]; Staphylococcus aureus): > 16 mg/L; MIC (S. aureus ATCC 43300): > 64 mg/L; MIC (S. aureus ATCC BAA-41): > 64 mg/L; MIC (S. aureus N315): > 64 mg/L; MIC (S. aureus MA078038): 64 mg/L (≈ 87.2 µM); MIC (S. aureus SCV CF1D-S): 0.12 mg/L (≈ 0.164 µM); Fold (−TO/+TO) (S. aureus ATCC 29213 [6]): 1 fold; MIC (S. aureus ATCC 29213 [6]; Human (SSTI), read-out: MIC): 0.5 mg/L (≈ 0.681 µM); MIC (S. aureus ATCC 29213 [6]; [11]): 0.5 mg/L (≈ 0.681 µM); MIC (S. aureus ATCC 29213 [6]; [12]): 0.5 mg/L; MIC (S. aureus SCV CF07-S; CF07-S + HQNO at 20 μg/ml): 0.06 to 0.12 mg/L; MIC (S. aureus SCV CF07-S; CF07-S, without HQNO): 0.12 mg/L (≈ 0.164 µM); MIC (S. aureus SCV CF07-S; [10]): 0.12 mg/L (≈ 0.164 µM)
CCn1cc(C(=O)O)c(=O)c2cc(F)c(N3CCNCC3)cc21 [Norfloxacin, norfloxacin]	> 64	4 (≈ 12.5 µM)	1 to 2 (≈ 3.13 to 6.26 µM)	> 64	1 (≈ 3.13 µM)	–	–	–	0.5 (≈ 1.57 µM)	1 (≈ 3.13 µM)	> 64	> 64	0.5 to 1 (≈ 1.57 to 3.13 µM)	> 64	1 (≈ 3.13 µM)	> 64	0.5 to 1 (≈ 1.57 to 3.13 µM)	1 to 2 (≈ 3.13 to 6.26 µM)	> 64	2 to 4 (≈ 6.26 to 12.5 µM)	MIC (S. aureus ATCC 29213 [7]): 1 mg/L (≈ 3.13 µM); Fold (−TO/+TO) (S. aureus ATCC 29213 [6]): 1 fold; MIC (S. aureus ATCC 29213 [6]; Human (SSTI), read-out: MIC): 1 to 2 mg/L (≈ 3.13 to 6.26 µM); MIC (S. aureus ATCC 29213 [6]; [11]): 1 to 2 mg/L (≈ 3.13 to 6.26 µM); MIC (S. aureus ATCC 29213 [6]; [12]): 1 to 2 mg/L; incorporation of radiolabeled precursors into the targeted macromolecules [8]: preferentially inhibited
